Laboratory results as given in patent US11802120B2, “Fused cyclic urea derivatives as CRHR2 antagonist” (RaQualia Pharma Inc., priority 2018, dated 2023).

Target: T1, human CRHR2-alpha (Homo sapiens, UniProt Q13324)
T1 sequence (Q13324 1-411): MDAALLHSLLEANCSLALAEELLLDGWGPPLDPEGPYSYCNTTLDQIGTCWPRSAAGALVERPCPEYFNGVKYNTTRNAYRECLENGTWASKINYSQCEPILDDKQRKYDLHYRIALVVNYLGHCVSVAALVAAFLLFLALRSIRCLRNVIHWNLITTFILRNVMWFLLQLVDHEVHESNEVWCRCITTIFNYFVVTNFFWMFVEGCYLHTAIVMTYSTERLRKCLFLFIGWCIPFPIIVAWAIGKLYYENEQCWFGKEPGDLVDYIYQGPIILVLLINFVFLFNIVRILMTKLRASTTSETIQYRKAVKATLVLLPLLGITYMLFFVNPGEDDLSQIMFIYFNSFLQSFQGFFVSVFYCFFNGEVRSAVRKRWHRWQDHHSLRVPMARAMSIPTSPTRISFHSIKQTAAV
Assay: cAMP functional assay for human CRHR2 (LANCE Ultra cAMP, TR-FRET)
Type: cell-based
Conditions: CHO-K1 cells expressing human CRHR2-alpha, agonist human urocortin2 at EC80, cAMP; read-out: IC50 against CRHR2
Outline: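 First, starved and frozen CHO-K1 cells expressing the receptor are thawed into IBMX-containing HBSS buffer (pH 7.4). Next, compounds are added for 30 min at 25° C. Then agonist at EC80 (urocortin2 or CRF, per receptor) is added for another 30 min, followed by cAMP detection reagents.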

| IC50 [nM] | Structure (SMILES) |
| --- | --- |
| < 300 | CNc1cc(-n2c(=O)n(C[C@H]3CC[C@H](NC(=O)c4cc(Cl)cnc4C)CC3)c3ccccc32)ccn1 [Example 573, 5-chloro-2-methyl-N-((1r,4r)-4-((3-(2-(methylamino)pyridin-4-yl)-2-oxo-2,3-dihydro-1H-benzo[d]imidazol-1-yl)methyl)cyclohexyl)nicotinamide] |
| < 300 | CNc1ccc(-n2c(=O)n(C[C@H]3CC[C@H](NC(=O)c4cc(Cl)cnc4C)CC3)c3ccccc32)nc1 [Example 574, 5-chloro-2-methyl-N-((1r,4r)-4-((3-(5-(methylamino)pyridin-2-yl)-2-oxo-2,3-dihydro-1H-benzo[d]imidazol-1-yl)methyl)cyclohexyl)nicotinamide] |
| < 300 | Cc1n[nH]c2ccc(-n3c(=O)n(C[C@H]4CC[C@H](NC(=O)c5cc(Cl)cnc5C(F)F)CC4)c4cccnc43)cc12 [Example 576, 5-chloro-2-(difluoromethyl)-N-((1r,4r)-4-((3-(3-methyl-1H-indazol-5-yl)-2-oxo-2,3-dihydro-1H-imidazo[4,5-b]pyridin-1-yl)methyl)cyclo-hexyl)nicotinamide] |
| < 300 | Cc1c[nH]c2ncc(-n3c(=O)n(C[C@H]4CC[C@H](NC(=O)c5cc(Cl)cnc5C(F)F)CC4)c4ncccc43)cc12 [Example 578, 5-chloro-2-(difluoromethyl)-N-((1r,4r)-4-((1-(3-methyl-1H-pyrrolo[2,3-b]pyridin-5-yl)-2-oxo-1H-imidazo[4,5-b]pyridin-3(2H)-yl)methyl)cyclohexyl)nicotinamide] |
| < 300 | Cc1ncc(Cl)cc1C(=O)N[C@H]1CC[C@H](Cn2c(=O)n(-c3ccc(-c4cnn(C)c4)cc3)c3ccccc32)CC1 [Example 579, 5-chloro-2-methyl-N-((1r,4r)-4-((3-(4-(1-methyl-1H-pyrazol-4-yl)phenyl)-2-oxo-2,3-dihydro-1H-benzo[d]imidazol-1-yl)methyl)cyclo-hexyl)nicotinamide] |
| < 300 | Cc1ncc(Cl)cc1C(=O)N[C@H]1CC[C@H](Cn2c(=O)n(-c3ccc(-c4cncs4)cc3)c3ccccc32)CC1 [Example 580, 5-chloro-2-methyl-N-((1r,4r)-4-((2-oxo-3-(4-(thiazol-5-yl)phenyl)-2,3-dihydro-1H-benzo[d]imidazol-1-yl)methyl)cyclohexyl)nicotinamide] |
| < 300 | Cc1ncc(Cl)cc1C(=O)N[C@H]1CC[C@H](Cn2c(=O)n(-c3ccc(-c4cn[nH]c4)cc3)c3ccccc32)CC1 [Example 581, N-((1r,4r)-4-((3-(4-(1H-pyrazol-4-yl)phenyl)-2-oxo-2,3-dihydro-1H-benzo[d]imidazol-1-yl)methyl)cyclohexyl)-5-chloro-2-methylnicotinamide] |
| < 300 | CNC(=O)c1ccc(-n2c(=O)n(C[C@H]3CC[C@H](NC(=O)c4cc(Cl)cnc4CF)CC3)c3ccccc32)cn1 [Example 582, 5-(3-(((1r,4r)-4-(5-chloro-2-(fluoromethyl)nicotina-mido)cyclohexyl)methyl)-2-oxo-2,3-dihydro-1H-benzo[d]imidazol-1-yl)-N-methylpicolinamide] |
| < 300 | Cc1noc2cc(-n3c(=O)n(C[C@H]4CC[C@H](NC(=O)c5cc(Cl)cnc5C(F)F)CC4)c4cccnc43)ccc12 [Example 583, 5-chloro-2-(difluoromethyl)-N-((1r,4r)-4-((3-(3-methyl-benzo[d]isoxazol-6-yl)-2-oxo-2,3-dihydro-1H-imidazo [4,5-b]pyridin-1-yl)methyl)cyclohexyl)nicotinamide] |
| < 300 | O=C(N[C@H]1CC[C@H](Cn2c(=O)n(-c3ccc(N4CC5(COC5)CC4=O)nc3)c3ccccc32)CC1)c1cc(Cl)cnc1C(F)F [Example 584, 5-chloro-2-(difluoromethyl)-N-((1r,4r)-4-((2-oxo-3-(6-(7-oxo-2-oxa-6-azaspiro[3,4]octan-6-yl)pyridin-3-yl)-2,3-dihydro-1H-benzo[d]imidazol-1-yl)methyl)cyclohexyl) nicotinamide] |
| < 300 | O=C(NC1CC1)c1ccc(-n2c(=O)n(C[C@H]3CC[C@H](NC(=O)c4cc(Cl)cnc4C(F)F)CC3)c3ccccc32)cn1 [Example 585, 5-(3-(((1r,4r)-4-(5-chloro-2-(difluoromethyl)nicotinamido)cyclohexyl)methyl)-2-oxo-2,3-dihydro-1H-benzo[d]imidazol-1-yl)-N-cyclopropyl-picolinamide] |
| < 300 | COCCNc1ccc(-n2c(=O)n(C[C@H]3CC[C@H](NC(=O)c4cc(Cl)cnc4C)CC3)c3ccccc32)cn1 [Example 593, 5-chloro-N-((1r,4r)-4-((3-(6-((2-methoxyethyl)amino)pyridin-3-yl)-2-oxo-2,3-dihydro-1H-benzo[d]imidazol-1-yl)methyl)cyclo-hexyl)-2-methylnicotinamide] |
| < 300 | CNc1ccc(-n2c(=O)n(C[C@H]3CC[C@H](NC(=O)c4cc(Cl)cnc4C)CC3)c3cc(F)ccc32)cn1 [Example 624, 5-chloro-N-((1r,4r)-4-((6-fluoro-3-(6-(methylamino)pyridin-3-yl)-2-oxo-2,3-dihydro-1H-benzo[d]imidazol-1-yl)methyl)cyclohexyl)-2-methylnicotinamide] |
| < 300 | CNc1ccc(-n2c(=O)n(C[C@H]3CC[C@H](NC(=O)c4cc(Cl)cnc4C)CC3)c3ccc(F)cc32)cn1 [Example 625, 5-chloro-N-((1r,4r)-4-((5-fluoro-3-(6-(methylamino)pyridin-3-yl)-2-oxo-2,3-dihydro-1H-benzo[d]imidazol-1-yl)methyl)cyclohexyl)-2-methylnicotinamide] |
| < 300 | CNc1ccc(-n2c(=O)n(C[C@H]3CC[C@H](NC(=O)c4cc(Cl)cnc4C(F)F)CC3)c3ccc(F)cc32)cn1 [Example 626, 5-chloro-2-(difluoromethyl)-N-((1r,4r)-4-((5-fluoro-3-(6-(methylamino)pyridin-3-yl)-2-oxo-2,3-dihydro-1H-benzo [d]imidazol-1-yl)methyl)cyclohexyl)nicotinamide] |
| < 300 | N#Cc1cc(F)ccc1-n1c(=O)n(C[C@H]2CC[C@H](NC(=O)c3cc(Cl)cnc3C(F)F)CC2)c2ccccc21 [Example 627, 5-chloro-N-((1r,4r)-4-((3-(2-cyano-4-fluorophenyl)-2-oxo-2,3-dihydro-1H-benzo[d]imidazol-1-yl)methyl)cyclohexyl)-2-(difluoromethyl)nicotinamide] |
| < 300 | CNC(=O)c1ccc(-n2c(=O)n(C[C@H]3CC[C@H](NC(=O)c4cc(Cl)cnc4C(F)F)CC3)c3cccc(F)c32)cn1 [Example 628, 5-(3-(((1 r,4r)-4-(5-chloro-2-(difluoromethyl)nicotinamido)cyclohexyl)methyl)-7-fluoro-2-oxo-2,3-dihydro-1H-benzo [d]imidazol-1-yl)-N-methylpicolinamide] |
| < 300 | O=C(N[C@H]1CC[C@H](Cn2c(=O)n(-c3ccccc3Cl)c3cccnc32)CC1)c1cc(Cl)cnc1C(F)F [Example 630, 5-chloro-N-((1r,4r)-4-((1-(2-chlorophenyl)-2-oxo-1H-imidazo[4,5-b]pyridin-3(2H)-yl)methyl)cyclohexyl)-2-(difluoromethyl)nicotinamide] |
| < 300 | COc1ccc(Cl)c(-n2c(=O)n(C[C@H]3CC[C@H](NC(=O)c4cc(Cl)cnc4C(F)F)CC3)c3cnccc32)c1 [Example 631, 5-chloro-N-((1r,4r)-4-((1-(2-chloro-5-methoxyphenyl)-2-oxo-1H-imidazo[4,5-c]pyridin-3(2H)-yl)methyl)cyclohexyl)-2-(difluoromethyl) nicotinamide] |
| < 300 | Cc1ncc(Cl)cc1C(=O)N[C@H]1CC[C@H](Cn2c(=O)n(-c3ccc(-c4c[nH]nn4)cc3)c3ccccc32)CC1 [Example 633, N-((1r,4r)-4-((3-(4-(1H-1,2,3-triazol-4-yl)phenyl)-2-oxo-2,3-dihydro-1H-benzo[d]imidazol-1-yl)methyl)cyclohexyl)-5-chloro-2-methylnicotinamide] |
| < 300 | Cc1ncc(Cl)cc1C(=O)N[C@H]1CC[C@H](Cn2c(=O)n(-c3ccc(-c4cocn4)cc3)c3ccccc32)CC1 [Example 635, 5-chloro-2-methyl-N-((1r,4r)-4-((3-(4-(oxazol-4-yl)phenyl)-2-oxo-2,3-dihydro-1H-benzo [d]imidazol-1-yl)methyl)cyclo-hexyl)nicotinamide] |
| < 300 | Cc1ncc(Cl)cc1C(=O)N[C@H]1CC[C@H](Cn2c(=O)n(-c3cncc(-n4cccn4)c3)c3ccccc32)CC1 [Example 636, N-((1r,4r)-4-((3-(5-(1H-pyrazol-1-yl)pyridin-3-yl)-2-oxo-2,3-dihydro-1H-benzo[d]imidazol-1-yl)methyl)cyclohexyl)-5-chloro-2-methylnicotinamide] |
| < 300 | Cc1ncc(Cl)cc1C(=O)N[C@H]1CC[C@H](Cn2c(=O)n(-c3ccc(-n4cccn4)nc3)c3ccccc32)CC1 [Example 637, N-((1r,4r)-4-((3-(6-(1H-pyrazol-1-yl)pyridin-3-yl)-2-oxo-2,3-dihydro-1H-benzo[d]imidazol-1-yl)methyl)cyclohexyl)-5-chloro-2-methylnicotinamide] |
| < 300 | O=C(N[C@H]1CC[C@H](Cn2c(=O)n(-c3cnc(OCCO)c(F)c3)c3ccccc32)CC1)c1cc(Cl)cnc1C(F)F [Example 638, 5-chloro-2-(difluoromethyl)-N-((1r,4r)-4-((3-(5-fluoro-6-(2-hydroxyethoxy)pyridin-3-yl)-2-oxo-2,3-dihydro-1H-benzo[d]imidazol-1-yl)methyl)cyclohexyl)nicotinamide] |
